# Measured values: ChEMBL document CHEMBL1155068, “Balancing oral exposure with Cyp3A4 inhibition in benzimidazole-based IGF-IR inhibitors” (Bioorg Med Chem Lett, 2008)
# Assay: Metabolic stability in mouse liver microsomes
# Type: ADME, Microsome
row,SMILES,Stability [nmol/min/mg]
1,COC(=O)NC1CCN(c2cc(C)c3nc(-c4c(NC[C@@H](O)c5cccc(Cl)c5)cc[nH]c4=O)[nH]c3c2)CC1,0.1
2,Cc1cc(N2CCC(OCCO)CC2)cc2[nH]c(-c3c(NC[C@@H](O)c4cccc(Cl)c4)cc[nH]c3=O)nc12,> 0.2
3,Cc1cc(N2CCC(NC(=O)C3CC3)CC2)cc2[nH]c(-c3c(NC[C@@H](O)c4cccc(Cl)c4)cc[nH]c3=O)nc12,0.1
4,Cc1cc(N2CCC(N3CCN(C(=O)OCCO)CC3)CC2)cc2[nH]c(-c3c(NC[C@@H](O)c4cccc(Cl)c4)cc[nH]c3=O)nc12,< 0.1
5,COCCOC(=O)N1CCN(C2CCN(c3cc(C)c4nc(-c5c(NC[C@@H](O)c6cccc(Cl)c6)cc[nH]c5=O)[nH]c4c3)CC2)CC1,< 0.1
6,Cc1cc(N2CCC3(CC2)OCCO3)cc2[nH]c(-c3c(NC[C@@H](O)c4cccc(Cl)c4)cc[nH]c3=O)nc12,0.1
7,COCC(=O)N1CCN(C2CCN(c3cc(C)c4nc(-c5c(NC[C@@H](O)c6cccc(Cl)c6)cc[nH]c5=O)[nH]c4c3)CC2)CC1,< 0.1
8,COC(=O)N1CCN(C2CCN(c3cc(C)c4nc(-c5c(NC[C@@H](O)c6cccc(Cl)c6)cc[nH]c5=O)[nH]c4c3)CC2)CC1,< 0.1
9,Cc1cc(N2CCC(N3CCN(C(=O)N4CCN(C)CC4)CC3)CC2)cc2[nH]c(-c3c(NC[C@@H](O)c4cccc(Cl)c4)cc[nH]c3=O)nc12,< 0.1
10,Cc1cc(N2CCC(N3CCN(C)CC3)CC2)cc2[nH]c(-c3c(NC[C@@H](O)c4cccc(Cl)c4)cc[nH]c3=O)nc12,< 0.1
11,Cc1cc(N2CCOCC2)cc2[nH]c(-c3c(NC[C@@H](O)c4cccc(Cl)c4)cc[nH]c3=O)nc12,0.1
12,Cc1cc(N2CCC(N3CCN(C(=O)N4CCOCC4)CC3)CC2)cc2[nH]c(-c3c(NC[C@@H](O)c4cccc(Cl)c4)cc[nH]c3=O)nc12,< 0.1
13,Cc1cc(N2CCC(O)CC2)cc2[nH]c(-c3c(NC[C@@H](O)c4cccc(Cl)c4)cc[nH]c3=O)nc12,0.1
14,Cc1cc(N2CCC(N3CCOCC3)CC2)cc2[nH]c(-c3c(NC[C@@H](O)c4cccc(Cl)c4)cc[nH]c3=O)nc12,0.1
15,Cc1cc(N2CCC(N3C[C@@H](C)O[C@@H](C)C3)CC2)cc2[nH]c(-c3c(NC[C@@H](O)c4cccc(Cl)c4)cc[nH]c3=O)nc12,< 0.1
16,COC1CCN(c2cc(C)c3nc(-c4c(NC[C@@H](O)c5cccc(Cl)c5)cc[nH]c4=O)[nH]c3c2)CC1,> 0.2
17,COCCOCC(=O)N1CCN(C2CCN(c3cc(C)c4nc(-c5c(NC[C@@H](O)c6cccc(Cl)c6)cc[nH]c5=O)[nH]c4c3)CC2)CC1,< 0.1
18,CC(=O)N1CCN(C2CCN(c3cc(C)c4nc(-c5c(NC[C@@H](O)c6cccc(Cl)c6)cc[nH]c5=O)[nH]c4c3)CC2)CC1,< 0.1
19,COCCOC1CCN(c2cc(C)c3nc(-c4c(NC[C@@H](O)c5cccc(Cl)c5)cc[nH]c4=O)[nH]c3c2)CC1,0.1
20,Cc1cc(N2CCC(N3CCN(C(=O)C4CC4)CC3)CC2)cc2[nH]c(-c3c(NC[C@@H](O)c4cccc(Cl)c4)cc[nH]c3=O)nc12,< 0.1
